{"source": "BindingDB's records for doi:10.1002/cbic.201000376", "about": "(Gyeongsang National University, 2010)", "data": [{"biological_target": "Alpha-glucosidase MAL12 (Saccharomyces cerevisiae (strain ATCC 204508 / S288c), UniProt P53341)", "sequence (P53341 whole entry)": "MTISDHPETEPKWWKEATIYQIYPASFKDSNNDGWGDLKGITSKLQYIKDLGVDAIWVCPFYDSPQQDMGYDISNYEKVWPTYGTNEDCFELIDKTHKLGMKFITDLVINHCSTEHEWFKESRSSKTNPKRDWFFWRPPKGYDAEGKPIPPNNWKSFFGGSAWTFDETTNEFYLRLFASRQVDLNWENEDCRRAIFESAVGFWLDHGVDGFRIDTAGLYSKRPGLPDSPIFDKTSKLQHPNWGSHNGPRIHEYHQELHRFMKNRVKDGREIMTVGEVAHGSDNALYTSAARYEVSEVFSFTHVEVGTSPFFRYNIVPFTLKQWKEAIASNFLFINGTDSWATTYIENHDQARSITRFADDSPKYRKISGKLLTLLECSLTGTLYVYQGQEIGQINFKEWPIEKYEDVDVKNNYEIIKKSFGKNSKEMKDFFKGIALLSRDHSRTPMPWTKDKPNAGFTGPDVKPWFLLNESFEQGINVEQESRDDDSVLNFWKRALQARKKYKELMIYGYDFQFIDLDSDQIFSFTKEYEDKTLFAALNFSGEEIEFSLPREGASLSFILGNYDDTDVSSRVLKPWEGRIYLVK", "assay": "Inhibition Assay", "method": "All enzymatic activities were determined by using the appropriate substrate (p-nitrophenyl-alpha-D-glucopyranoside, p-nitrophenyl-beta-D-gulcopyranoside, o-nitrophenyl-alpha-D-manno-pyranoside, p-nitrohenyl-alpha-D-galactopyranoside and strach at the pH or each enzyme.", "units": {"IC50": "µM", "Ki": "µM"}, "values": [{"smiles": "O=C(Nc1ccc(/C=C/c2ccc(O)c(O)c2)cc1)Nc1ccc(F)cc1F", "note": "[Urea derivative, 12]", "IC50": 8.4, "Ki": 3.2}, {"smiles": "O=C(Nc1ccccc1)Nc1ccc(/C=C/c2cc(O)cc(O)c2)cc1", "note": "[Urea derivative, 17]", "IC50": 58.8}, {"smiles": "Nc1ccc(/C=C/c2ccc(O)cc2)cc1", "IC50": "> 200"}, {"smiles": "O=C(Nc1ccc(/C=C/c2ccc(O)c(O)c2)cc1)Nc1ccc(C(F)(F)F)cc1", "note": "[Urea derivative, 10]", "IC50": 28.8, "Ki": 12.1}, {"smiles": "CC(=O)Nc1ccc(/C=C/c2ccc(O)c(O)c2)cc1", "note": "[Stilbene derivative, 5]", "IC50": "> 200"}, {"smiles": "COc1ccc(NC(=O)Nc2ccc(/C=C/c3ccc(O)cc3)cc2)cc1", "note": "[Urea derivative, 15]", "IC50": 60.1}, {"smiles": "O=C(Nc1ccccc1)Nc1ccc(/C=C/c2ccc(O)c(O)c2)cc1", "note": "[Urea derivative, 6]", "IC50": 42.1, "Ki": 10.6}, {"smiles": "COc1ccc(NC(=O)Nc2ccc(/C=C/c3ccc(O)c(O)c3)cc2)cc1", "note": "[Urea derivative, 7]", "IC50": 19.5, "Ki": 10.5}, {"smiles": "CNc1ccc(/C=C/c2ccc(O)c(O)c2)cc1", "note": "[Stilbene derivative, 4]", "IC50": "> 200"}, {"smiles": "COc1ccc(NC(=O)Nc2ccc(/C=C/c3cc(O)cc(O)c3)cc2)cc1", "note": "[Urea derivative, 18]", "IC50": 105}, {"smiles": "Cc1ccc(NC(=O)Nc2ccc(/C=C/c3ccc(O)c(O)c3)cc2)cc1", "note": "[Urea derivative, 9]", "IC50": 63.6}, {"smiles": "Nc1ccc(NC(=O)Nc2ccc(/C=C/c3ccc(O)c(O)c3)cc2)cc1", "note": "[Urea derivative, 8]", "IC50": 68.5}, {"smiles": "O=C(Nc1ccc(/C=C/c2ccc(O)cc2)cc1)Nc1ccc(F)cc1F", "note": "[Urea derivative, 16]", "IC50": 18.5, "Ki": 9.4}, {"smiles": "O=C(Nc1ccccc1)Nc1ccc(/C=C/c2ccc(O)cc2)cc1", "note": "[Urea derivative, 14]", "IC50": 29.1, "Ki": 17}, {"smiles": "O=C(Nc1ccc(F)cc1)Nc1ccc(/C=C/c2ccc(O)c(O)c2)cc1", "note": "[Urea derivative, 11]", "IC50": 19.8, "Ki": 7.2}, {"smiles": "O=C(Nc1ccc(/C=C/c2cc(O)cc(O)c2)cc1)Nc1ccc(F)cc1F", "note": "[Urea derivative, 19]", "IC50": 64.3}, {"smiles": "Oc1ccc(/C=C/c2cc(O)cc(O)c2)cc1", "note": "[5-[(E)-2-(4-hydroxyphenyl)ethenyl]benzene-1,3-diol]", "IC50": 26.4, "Ki": 21.5}, {"smiles": "O=C(Nc1ccc(Cl)cc1)Nc1ccc(/C=C/c2ccc(O)c(O)c2)cc1", "note": "[Urea derivative, 13]", "IC50": 14.3, "Ki": 4.6}]}]}
